The values below come from patent US20230278998A1, “Compound containing structure of a five-membered heteroaromatic ring, pharmaceutical compositions thereof and applications thereof” (280 Bio, Inc., priority 2022, published 2023).

Structures are written as SMILES.

Sequence of PARG (389-976) (Q86W56 389-976): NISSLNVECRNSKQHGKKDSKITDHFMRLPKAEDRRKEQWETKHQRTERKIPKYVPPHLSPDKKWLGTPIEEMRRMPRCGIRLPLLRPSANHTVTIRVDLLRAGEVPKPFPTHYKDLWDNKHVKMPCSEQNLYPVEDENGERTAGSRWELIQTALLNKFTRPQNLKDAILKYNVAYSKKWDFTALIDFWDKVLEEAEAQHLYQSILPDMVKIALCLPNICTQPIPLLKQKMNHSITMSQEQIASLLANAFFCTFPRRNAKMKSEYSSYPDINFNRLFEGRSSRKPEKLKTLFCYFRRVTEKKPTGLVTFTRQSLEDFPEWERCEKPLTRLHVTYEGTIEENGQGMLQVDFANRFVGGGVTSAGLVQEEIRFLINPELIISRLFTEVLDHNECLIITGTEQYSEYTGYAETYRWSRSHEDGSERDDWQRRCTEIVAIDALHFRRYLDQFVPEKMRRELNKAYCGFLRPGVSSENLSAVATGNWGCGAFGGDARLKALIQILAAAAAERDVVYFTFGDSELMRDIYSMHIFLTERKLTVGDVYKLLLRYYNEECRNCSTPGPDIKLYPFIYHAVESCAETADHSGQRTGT

For the first assay, the target named is PARG (389-976) (Homo sapiens (Human), UniProt Q86W56). Kind of assay: PARG enzyme inhibition assay (TR-FRET). The class given is biochemical. Conditions: Table 1, class symbol. On the procedure:
PARG Enzyme Inhibition Assay
PARG in vitro assays were conducted in standard 384-well plates in a total volume of 15 μL.
Take `Cc1nc(C)c(Cn2nc(-c3nnc(C(F)F)s3)c3cc(S(=O)(=O)NC4(CF)CC4)ccc32)s1` [Compound 4]: the IC50 is less than 100 nM.
The same measure, in the same setting: for `Cc1nc(C)c(Cn2nc(-c3nnc(C(F)F)s3)c3nc(S(=O)(=O)NC4(C)CC4)ccc32)s1` [Compound 11] the value was 100 to 1000 nM; for `O=S(=O)(NC1(CF)CC1)c1ccc2c(c1)c(-c1nnc(C(F)F)s1)nn2CC1CC1` [Compound 12], less than 100 nM.

The assay is the same for the next values; noted with them: Table 2, class symbol.
As to `Cn1nc(-c2nnc(C(F)F)s2)c2cc(S(=O)(=O)NC3(C#N)CC3)cc(N3CCC(N=[N+]=[N-])CC3)c21` [Compound 60], the IC50 is less than 100 nM.
`CC(C)S(=O)(=O)N1CCN(c2cc(S(=O)(=O)NC3(C#N)CC3)cc3c(-c4nnc(C(F)F)s4)nn(C)c23)CC1` [Compound 48] yielded a 50% inhibitory concentration (IC50) of less than 100 nM.
As for `Cn1nc(-c2nnc(C(F)F)s2)c2cc(S(=O)(=O)NC3(C#N)CC3)cc(N3CCN(C(=O)c4ccccn4)CC3)c21` [Compound 43], the half-maximal inhibitory concentration (IC50) is less than 100 nM.
The same measure, in the same setting: the same measure for `Cn1nc(-c2nnc(C(F)F)s2)c2cc(S(=O)(=O)NC3(C#N)CC3)cc(N3CCN(C(=O)C(F)(F)F)CC3)c21` [Compound 47]: less than 100 nM.
On the same count and under the same terms, the same measure for `CC(C)C(=O)N1CCN(c2cc(S(=O)(=O)NC3(C)CC3)cc3c(-c4nnc(C(F)F)s4)nn(C)c23)C2CC21` (stereo not shown) [Compound 63]: less than 100 nM; for `N#CC1(NS(=O)(=O)c2ccc3c(c2)c(-c2nnc(C(F)F)s2)nn3Cc2ccc(F)cc2)CC1` [Compound 57]: less than 100 nM.
Regarding `CCC(=O)N1CCN(c2cc(S(=O)(=O)NC3(C#N)CC3)cc3c(-c4nnc(C(F)F)s4)nn(C)c23)CC1` [Compound 45], the IC50 was less than 100 nM.
As to `Cn1nc(-c2nnc(C(F)F)s2)c2cc(S(=O)(=O)NC3(C#N)CC3)cc(N3CCN(C(=O)CC(F)(F)F)CC3)c21` [Compound 52], the half-inhibitory concentration (IC50) was less than 100 nM.
Still for that read-out and setting: the same measure for `CC(C)CN1CCN(c2cc(S(=O)(=O)NC3(C#N)CC3)cc3c(-c4nnc(C(F)F)s4)nn(C)c23)CC1` [Compound 49]: less than 100 nM.
Compound `Cn1nc(-c2nnc(C(F)F)s2)c2cc(S(=O)(=O)NC3(C#N)CC3)cc(N3CCN(S(C)(=O)=O)CC3)c21` [Compound 34] returned an IC50 of less than 100 nM.
Still for that read-out and setting: the same measure for `Cn1nc(-c2nnc(C(F)F)s2)c2cc(S(=O)(=O)NC3(C)CC3)cc(N3CCN(C(=O)C4CC4)CC3)c21` [Compound 27]: less than 100 nM; for `C[C@@H]1CN(c2cc(S(=O)(=O)NC3(C#N)CC3)cc3c(-c4nnc(C(F)F)s4)nn(C)c23)CCO1` [Compound 37]: less than 100 nM; for `Cn1nc(-c2nnc(C(F)F)s2)c2cc(S(=O)(=O)NC3(C#N)CC3)cc(N3CCC(O)CC3)c21` [Compound 42]: less than 100 nM.
As for `CC(C)C(=O)N1CCN(c2cc(S(=O)(=O)NC3(C#N)CC3)cc3c(-c4nnc(C(F)F)s4)nn(C(F)F)c23)CC1` [Compound 55], the 50% inhibitory concentration (IC50) is less than 100 nM.
As to `CC1(NS(=O)(=O)c2ccc3c(c2)c(-c2nnc(C(F)F)s2)nn3Cc2ccc3cn[nH]c3c2)CC1` [Compound 58], the IC50 is less than 100 nM.
On to `Cn1nc(-c2nnc(C(F)F)s2)c2cc(S(=O)(=O)NC3(C)CC3)cc(N3CCn4cncc4C3)c21` [Compound 20], for which the half-maximal inhibitory concentration (IC50) was less than 100 nM.
`Cn1nc(-c2nnc(C(F)F)s2)c2cc(S(=O)(=O)NC3(C#N)CC3)cc(-c3ccccc3)c21` [Compound 28] had a 50% inhibitory concentration (IC50) of less than 100 nM.
Compound `CC(C)C(=O)N1CC2CCC(C1)N2c1cc(S(=O)(=O)NC2(C)CC2)cc2c(-c3nnc(C(F)F)s3)nn(C)c12` [Compound 62] displayed an IC50 of less than 100 nM.
The compound `CCn1nc(-c2nnc(C(F)F)s2)c2cc(S(=O)(=O)NC3(C)CC3)cc(N3CCN(C(=O)C(C)C)CC3)c21` [Compound 22] came in with an IC50 of less than 100 nM.
The compound `CC(C)C(=O)N1CCN(c2cc(S(=O)(=O)NC3(C)CC3)cc3c(-c4nnc(C(F)F)s4)nn(C4CC4)c23)CC1` [Compound 21] returned an IC50 of less than 100 nM.
The same measure, in the same setting: for `CC(C)C(=O)N1CCN(c2cc(S(=O)(=O)NC3(C)CC3)cc3c(-c4nnc(C(F)F)s4)csc23)CC1` [Compound 64] the value was less than 100 nM.
Turning to `Cn1nc(-c2nnc(C(F)F)s2)c2cc(S(=O)(=O)NC3(C#N)CC3)cc(N3CCN(c4cccnn4)CC3)c21` [Compound 41], the half-inhibitory concentration (IC50) was less than 100 nM.
For `Cc1nc(C)c(Cn2nc(-c3nnc(C(F)F)s3)c3cc(S(=O)(=O)NC4(C)CC4)c(F)cc32)s1` [Compound 13], the IC50 is less than 100 nM.
Still for that read-out and setting: for `Cn1nc(-c2nnc(C(F)F)s2)c2cc(S(=O)(=O)NC3(C#N)CC3)cc(N3CCN(C(=O)N4CCCC4)CC3)c21` [Compound 51] the value was less than 100 nM.

Staying with this assay, now noted: Table 3, class symbol.
Turning to `Cn1nc(-c2nnc(C(F)F)s2)c2cc(S(=O)(=O)NC3(C#N)CC3)cc(-c3ccc(C(=O)N4CCCC4)cc3)c21` [Compound 135], the IC50 was less than 100 nM.
In turn, `CC(C)C(=O)N1CCN(c2cc(S(=O)(=O)NC3(C)CC3)cc3c(-c4nnc(C(F)F)s4)nn(C)c23)C[C@@H]1C` [Compound 82] had a concentration for half-maximal inhibition (IC50) of less than 100 nM.
As for `CC(C)S(=O)(=O)N1CC=C(c2cc(S(=O)(=O)NC3(C#N)CC3)cc3c(-c4nnc(C(F)F)s4)nn(C)c23)CC1` [Compound 141], the IC50 is less than 100 nM.
Still for that read-out and setting: for `Cn1nc(-c2nnc(C(F)F)s2)c2cc(S(=O)(=O)NC3(C#N)CC3)cc(N3CCN(C(=O)C4CCCC4)CC3)c21` [Compound 142] the value was less than 100 nM; for `C[C@H](N)C(=O)N1C2CCC1CC(c1cc(S(=O)(=O)NC3(C#N)CC3)cc3c(-c4nnc(C(F)F)s4)nn(C)c13)C2` (stereo partly shown) [Compound 128], less than 100 nM.
For `Cn1nc(-c2nnc(C(F)F)s2)c2cc(S(=O)(=O)NC3(C#N)CC3)cc(N3CC4CCC(C3)C4C(C)(C)O)c21` (stereo not shown) [Compound 130], the IC50 was 100 to 1000 nM.
Same read-out and setting: the same measure for `C[C@H](O)C(=O)N1C2C=C(c3cc(S(=O)(=O)NC4(C#N)CC4)cc4c(-c5nnc(C(F)F)s5)nn(C)c34)CC1CC2` (stereo partly shown) [Compound 80]: less than 100 nM.
`CCn1nc(-c2nnc(C(F)F)s2)c2cc(S(=O)(=O)NC3(C)CC3)cc(N3CCN(C(=O)C(C)C)[C@@H](C)C3)c21` [Compound 92]: the IC50 was less than 100 nM.
On to `Cn1nc(-c2nnc(C(F)F)s2)c2cc(S(=O)(=O)NC3(C#N)CC3)cc(N3CCC(N4CCCC4)CC3)c21` [Compound 134], for which the half-maximal inhibitory concentration (IC50) was less than 100 nM.
The compound `CC(C)C(=O)N1C2C=C(c3cc(S(=O)(=O)NC4(C#N)CC4)cc4c(-c5nnc(C(F)F)s5)nn(C)c34)CC1COC2` (stereo not shown) [Compound 85] gave an IC50 of less than 100 nM.
Same read-out and setting: the same measure for `CC(C)C(=O)N1C2C=C(c3cc(S(=O)(=O)NC4(C#N)CC4)cc4c(-c5nnc(C(F)F)s5)nn(C)c34)CC1CC2` (stereo not shown) [Compound 120]: less than 100 nM; for `CC(C)C(=O)N1CCN(c2cc(S(=O)(=O)NC3(C#N)CC3)cc3c(-c4nnc(C(F)F)s4)nn(C)c23)C[C@H]1C` [Compound 69]: less than 100 nM; for `CC(C)C(=O)N1C2CCC1CN(c1cc(S(=O)(=O)NC3(C#N)CC3)cc3c(-c4nnc(C(F)F)s4)nn(C)c13)C2` [Compound 102]: less than 100 nM.
As for `C[C@@H]1CN(c2cc(S(=O)(=O)NC3(C#N)CC3)cc3c(-c4nnc(C(F)F)s4)nn(C)c23)CCN1C(=O)N(C)C` [Compound 70], the half-maximal inhibitory concentration (IC50) was less than 100 nM.
`CC(C)C(=O)N1CCN(c2cc(S(=O)(=O)NC3(C#N)CC3)cc3c(-c4nnc(C(F)F)s4)nn(CC(F)(F)F)c23)C[C@@H]1C` [Compound 108] displayed an IC50 of less than 100 nM.
Compound `CC(C)C(=O)N1C2C=C(c3cc(S(=O)(=O)NC4(C#N)CC4)cc4c(-c5nnc(C(F)F)s5)nn(C)c34)CC1CCC2` (stereo not shown) [Compound 83] showed an IC50 of less than 100 nM.
Compound `COc1ccc(CN(C2(C#N)CC2)S(=O)(=O)c2cc(N3CC4CCC(C3)N4C(=O)C(C)C)c3c(c2)c(-c2nnc(C(F)F)s2)nn3CCO)cc1` [Compound 96] displayed an IC50 of 100 to 1000 nM.
For `CC(C)C(=O)N1C2CCC1CN(c1cc(S(=O)(=O)NC3(C#N)CC3)cc3c(-c4nnc(C(F)F)s4)nn(CC#N)c13)C2` [Compound 122], the half-inhibitory concentration (IC50) is less than 100 nM.
Compound `Cn1nc(-c2nnc(C(F)F)s2)c2cc(S(=O)(=O)NC3(C#N)CC3)cc(N3CC4CCC(C3)N4C(=O)C3CCCC3)c21` [Compound 75] registered an IC50 of less than 100 nM.
`COCCn1nc2c(N3CC4CCC(C3)N4C(=O)C(C)C)cc(S(=O)(=O)NC3(C#N)CC3)cc2c1-c1nnc(C(F)F)s1` [Compound 99] yielded a half-maximal inhibitory concentration (IC50) of less than 100 nM.
Regarding `CCn1nc(-c2nnc(C(F)F)s2)c2cc(S(=O)(=O)NC3(C#N)CC3)cc(N3C4CCC3CN(C(=O)C(C)C)C4)c21` [Compound 94], the IC50 was less than 100 nM.
As to `CCn1nc(-c2nnc(C(F)F)s2)c2c(F)c(S(=O)(=O)NC3(C)CC3)cc(N3CCN(C(=O)C(C)C)CC3)c21` [Compound 66], the IC50 is less than 100 nM.
As for `Cn1nc(-c2nnc(C(F)F)s2)c2cc(S(=O)(=O)NC3(C#N)CC3)cc(C3=CCC(C(=O)N4CCCC4)CC3)c21` (stereo not shown) [Compound 137], the half-maximal inhibitory concentration (IC50) is less than 100 nM.
`C[C@H](N)C(=O)N1C2CCC1CN(c1cc(S(=O)(=O)NC3(C#N)CC3)cc3c(-c4nnc(C(F)F)s4)nn(C)c13)C2` [Compound 73] returned a half-maximal inhibitory concentration (IC50) of less than 100 nM.
In turn, `CC(C)C(=O)N1CC=C(c2cc(S(=O)(=O)NC3(C#N)CC3)cc3c(-c4nnc(C(F)F)s4)nn(CC(F)(F)F)c23)CC1` [Compound 107] yielded an IC50 of less than 100 nM.
`CN(C)C(=O)C1CCN(c2cc(S(=O)(=O)NC3(C#N)CC3)cc3c(-c4nnc(C(F)F)s4)nn(C)c23)CC1` [Compound 90] showed an IC50 of less than 100 nM.
As to `C[C@H](N)C(=O)N1CCC(c2cc(S(=O)(=O)NC3(C#N)CC3)cc3c(-c4nnc(C(F)F)s4)nn(C)c23)CC1` [Compound 98], the IC50 is less than 100 nM.
The compound `CC(C)C(=O)N1C2CCCC1CN(c1cc(S(=O)(=O)NC3(C#N)CC3)cc3c(-c4nnc(C(F)F)s4)nn(C)c13)C2` [Compound 84] gave an IC50 of less than 100 nM.
`Cn1nc(-c2nnc(C(F)F)s2)c2cc(S(=O)(=O)NC3(C#N)CC3)cc(N3CCC(N4CCCC4=O)CC3)c21` [Compound 139] registered a half-inhibitory concentration (IC50) of less than 100 nM.
`C[C@H](N)C(=O)N1C2C=C(c3cc(S(=O)(=O)NC4(C#N)CC4)cc4c(-c5nnc(C(F)F)s5)nn(C)c34)CC1CC2` (stereo partly shown) [Compound 79] came in with an IC50 of less than 100 nM.
Consider `CC(C)C(=O)N1CCN2c3cc(S(=O)(=O)NC4(C#N)CC4)cc4c(-c5nnc(C(F)F)s5)nn(c34)CC2C1` (stereo not shown) [Compound 117], for which the IC50 was less than 100 nM.

The IC50 is the concentration at which inhibition is half-maximal.
